In patent publication US20040242669A1, “Method of treating deficits associated with brain injury” (priority 2003, published 2004):
Marks after values point to notes of the source that are not given here.

Assays:
Assay type in all cases: in vivo, rat
[1] = tested on: animals with hypobaric hypoxia-induced amnesia; assay: Step-through passive avoidance, hypobaric hypoxia-induced amnesia; conditions: for Latency: hypobaric hypoxia, median latency to re-enter dark box, max 300 s
Description: (§1) Male rats of the Sprague-Dawley strain (purchased from Charles River, Italy) weighing 280±20 g were used throughout all experiments. The animals were housed two-three to a cage under a constant light-dark cycle (lights on between 8.00 and 20.00) at 21° C. Commercial food and tap water were available ad libitum. All animals were used only once in the behavioral experiments.
(§2) Ropinirole (ropinirole hydrochloride, SmithKline Beecham, Italy) and dihydroergocryptine (DHECP) α-dihydroergocryptine methanesulfonate, Monsanto, Italy) were dissolved in saline and injected subcutaneously (s.c.) at the dose of 0.5 and 1 mg/kg/day for 7 days. In the experiments with kainate-induced convulsions, ropinirole or DHECP were injected intravenously (i.v.) 30 min prior, and again at the same time of the intracerebroventricular (i.c.v) injection on kainic acid; Control animals received an injection of saline alone with the same procedure.
Passive avoidance behaviour was studied in a step-through type of passive avoidance situation (Ader et al., Psycon Sci, 26, 125-128 (1972)). Briefly the rats were adapted to the apparatus consisting of a large dark compartment equipped with a grid floor and a mesh-covered elevated runway attached to the front centre of the dark chamber. Adaptation training was followed by a single trial in which the rats were placed on the elevated platform and allowed to enter the dark box. Three such trials were given on the next day with an intertrial interval of 5 min after the trial. The rats received a single 2-s unavoidable scrambled foot-shock (0.20 mA) immediately after entering the dark compartment. Retention of the response was tested 24 h after the learning trial. The rats were placed on the elevated runway and the latency to re-enter the shock compartment was recorded up to a maximum of 300 s.
(§3) In the first experiment, the effects of ropinirole or DHECP were studied on amnesia induced by hypobaric hypoxia in rats. After a 7-day pretreatment with ropinirole, DHECP or saline, a group of animals was subjected to acute hypobaric hypoxia by means of a hypobaric chamber (Chantiers et Ateliers de Bretagne, France) causing depression to 300 mmHg (Boismare et al., Gerentology, 24, 6-13 (1978)). After 3 min in the chamber, the animals were removed and admitted for behavioral testing. Intact control rats were also introduced into the chamber but not subjected to hypobaric hypoxia.

[2] = tested on: animals with hypobaric hypoxia-induced amnesia; assay: Shuttle-box active avoidance acquisition, hypobaric hypoxia-induced amnesia; conditions: for Learners / CARs: hypobaric hypoxia; for CARs: mean ± S.E.M.
Description: as §1, §2
Shuttle-box active avoidance acquisition was studied in a single session test as described in Bohus and De Wied, Endogenous Peptides and Learning and Memory Processes. Academic Press, New York, pp59-775, (1981). Briefly, the rats were trained to avoid the unconditioned stimulus (US) of a scrambled electrical foot-shock (0.20 mA) delivered through the grid floor. The conditioned stimulus (CS) was a buzzer presented for 3 s prior to the US. If no escape occurred within 20 s of CS/US presentation, the shock was terminated. A maximum of 30 conditioning trials were given with a variable intertrial interval averaging 60 s. The learning criterion was five consecutive conditioned avoidance responses (CARs). For those animals that reached the criterion in less than 30 trials, the remaining trials until 30 were considered as CARs. Indexes of avoidance behaviour were the total number of CARs and the percent number of learners per group.
as §3

kainate-induced epilepsy = assay: Kainate-induced convulsions (epilepsy); conditions: for Latency (s) to the first tonic-clonic seizure / Seizures (total number) / Mortality (%): kainic acid 10 μg/2 μl i.c.v.; for Latency (s) to the first tonic-clonic seizure / Seizures (total number): 30-min observation, mean ± S.E.M.; for Mortality (%): checked 2 h after convulsive agent
Description: as §1
Another group of animals were implanted under ether anaesthesia with a permanent plastic cannula in the right lateral ventricle (foramen interventriculare, Konig and Klippel A 6360) with another cannula into the right jugular vein. These animals were sacrificed at the end of behavioral procedure and the brains were utilized for biochemical analysis. Data were taken from animals showing no abnormalities at the postmortem examination. All experiments were carried out according to the European Community Council Directive 86/609/ECC and efforts were made to minimize animal suffering and to reduce the number of animals used.
as §2, with “[…],” for “ropinirole or DHECP were injected intravenously (i.v.) 30 min prior,”
Kainic acid (Sigma, USA) was dissolved in saline and injected i.c.v. at the dose of 10 μg/2 μi.
Over a 30-min observation, the following items were recorded per each animal receiving an i.c.v. injection of kainic acid: latency in s to the first tonic-clonic seizure; total number of seizures, percent rate of mortality (checked 2 h after the administration of the convulsive agent).
Behavioral scoring of kainate-induced convulsions was started immediately after i.c.v. injection of the drug and proceeded for 30 min. Ropinirole, DHECP or saline were injected twice, 30 min prior and, again, at the same time of the i.c.v. administration of kainic acid.

[3] = hypobaric hypoxia-induced amnesia, summary of Table 1
[4] = kainate-induced seizures, summary of Table 3

Q: Which results are given for `CC(C)C[C@H]1C(=O)N2CCC[C@H]2[C@]2(O)O[C@](NC(=O)[C@@H]3C[C@@H]4c5cccc6[nH]cc(c56)C[C@H]4N(C)C3)(C(C)C)C(=O)N12` [DHECP, α-dihydroergocryptine methanesulfonate]?
A: latency to re-enter the dark box (effect of treatment, in words) [1, 3]: increase in these behavioral parameters, however, for the latter only with the greater dose; Latency ([1]; 0.5 mg/kg/day s.c. for 7 days): 30^e; Latency ([1]; 1 mg/kg/day s.c. for 7 days): 74^f; number of CARs and percent number of learners in the shuttle-box (effect of treatment, in words) [2, 3]: increase in these behavioral parameters, however, for the latter only with the greater dose; Learners ([2]; 0.5 mg/kg/day s.c. for 7 days): 30^c percent; CARs ([2]; 0.5 mg/kg/day s.c. for 7 days): 13.0 ± 1.3^a; Learners ([2]; 1 mg/kg/day s.c. for 7 days): 80^d percent; CARs ([2]; 1 mg/kg/day s.c. for 7 days): 18.1 ± 1.2^b; latency to the first tonic-clonic seizure (effect of treatment, in words) (kainate-induced epilepsy; [4]): did not modify; percent mortality rate (effect of treatment, in words) (kainate-induced epilepsy; [4]): significant decrease; total number of kainate-induced seizures (effect of treatment, in words) (kainate-induced epilepsy; [4]): did not modify; Latency (s) to the first tonic-clonic seizure (kainate-induced epilepsy; 0.5 mg/kg injected s.c. twice (30 min prior and at kainic acid)): 56.9 ± 8.5 s; Seizures (total number) (kainate-induced epilepsy; 0.5 mg/kg injected s.c. twice): 7.8 ± 1.0; Mortality (%) (kainate-induced epilepsy; 0.5 mg/kg injected s.c. twice): 10^a %; Latency (s) to the first tonic-clonic seizure (kainate-induced epilepsy; 1 mg/kg injected s.c. twice (30 min prior and at kainic acid)): 69.2 ± 6.5 s; Seizures (total number) (kainate-induced epilepsy; 1 mg/kg injected s.c. twice): 5.7 ± 1.1; Mortality (%) (kainate-induced epilepsy; 1 mg/kg injected s.c. twice): 10^a %
